Test results from patent US8783089B2, “Device and method for determining the properties of aerosol formulations” (Boehringer Ingelheim International GmbH, priority 2008, dated 2014).

Assay: Characterisation of the air-liquid release system (Franz diffusion cell, online UV detection at 225 nm) with dissolved active substance
Format: physicochemical
Experimental: Above the membrane 6 an air chamber is formed as the second compartment 12, and the entire diffusion cell 13 (Franz cell) is surrounded by thermal insulation 9 and can be temperature controlled in the desired manner by means of a hotplate 10. The release medium is mixed by means of a magnetic stirrer 14. In order to characterise the system, first of all salbutamol sulphate, as the sample active substance, was added directly in the form of a dilute solution to the release medium (PBS, phosphate buffered saline) and measured at 225 nm in the photometer. […] Salbutamol sulphate applied to the membrane 6 reaches the maximum concentration after about ten minutes. This means that the membrane 6 forms a diffusion barrier for about six minutes. The total system has a reaction time of about ten minutes, i.e. changes in concentration caused by the release of active substance are detected with a ten minute delay. On the timescale of a typical release test over 24 hours this delay can be disregarded.

For salbutamol sulphate, the “time until maximum concentration is reached” value (applied to the membrane 6 (regenerated cellulose), release medium PBS, 225 nm) was “about ten” and the “incubation time until the active substance concentration reaches a plateau” value (dilute solution added directly to the release medium (PBS), measured at 225 nm) was “about four”.
